From ChEMBL document CHEMBL1201862, “PubChem BioAssay data set” (2004)
Active and inactive are the calls of the source.

Experiments:
[1] = system: Streptococcus; test: Group A Streptococcus viability loss, dose response, counter-screen for streptokinase expression inhibitor project, luminescence, BacTiterGlo (AID 1915); assay type: functional, organism-based;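 note: potency for reduction of bacterial viability or growth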
[2] = biological target: T1, Sentrin-specific protease 6 (Homo sapiens, UniProt Q9GZR1); assay type: functional;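 note: Luminescence-based dose-response confirmatory assay of SENP6 inhibition, following up an ultra-high-throughput screen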
T1 sequence (Q9GZR1 whole entry): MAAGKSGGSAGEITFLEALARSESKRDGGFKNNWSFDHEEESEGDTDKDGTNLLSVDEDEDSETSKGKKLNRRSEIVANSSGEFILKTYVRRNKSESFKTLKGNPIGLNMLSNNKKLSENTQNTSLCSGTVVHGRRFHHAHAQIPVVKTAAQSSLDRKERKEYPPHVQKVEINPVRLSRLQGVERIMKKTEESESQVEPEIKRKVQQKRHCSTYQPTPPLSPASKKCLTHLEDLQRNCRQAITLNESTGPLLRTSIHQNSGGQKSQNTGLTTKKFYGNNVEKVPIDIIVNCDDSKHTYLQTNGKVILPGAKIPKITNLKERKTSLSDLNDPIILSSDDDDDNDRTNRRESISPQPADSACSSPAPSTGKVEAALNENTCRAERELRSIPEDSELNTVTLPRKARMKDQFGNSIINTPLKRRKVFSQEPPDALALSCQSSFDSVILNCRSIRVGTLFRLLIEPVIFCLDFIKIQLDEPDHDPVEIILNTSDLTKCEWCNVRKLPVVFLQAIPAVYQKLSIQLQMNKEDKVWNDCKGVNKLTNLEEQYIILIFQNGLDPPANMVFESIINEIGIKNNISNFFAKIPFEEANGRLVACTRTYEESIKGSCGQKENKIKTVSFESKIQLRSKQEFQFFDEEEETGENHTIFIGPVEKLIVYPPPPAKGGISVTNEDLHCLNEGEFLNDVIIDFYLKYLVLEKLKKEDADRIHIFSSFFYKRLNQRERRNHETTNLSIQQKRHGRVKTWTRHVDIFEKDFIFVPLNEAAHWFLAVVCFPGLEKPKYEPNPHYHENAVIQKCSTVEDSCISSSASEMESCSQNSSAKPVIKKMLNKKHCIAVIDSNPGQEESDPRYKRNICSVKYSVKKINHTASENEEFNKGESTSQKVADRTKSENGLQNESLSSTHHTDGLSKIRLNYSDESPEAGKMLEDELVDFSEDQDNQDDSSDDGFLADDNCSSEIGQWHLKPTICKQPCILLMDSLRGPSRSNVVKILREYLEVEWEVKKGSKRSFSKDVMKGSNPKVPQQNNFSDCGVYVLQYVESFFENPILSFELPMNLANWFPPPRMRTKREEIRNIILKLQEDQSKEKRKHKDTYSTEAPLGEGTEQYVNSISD

[3] = biological target: T2, Sentrin-specific protease 8 (Homo sapiens, UniProt Q96LD8); assay type: functional;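 note: luminescence read-out of SENP8 inhibition, dose-response confirmation following an ultra-high-throughput screen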
T2 sequence (Q96LD8 whole entry): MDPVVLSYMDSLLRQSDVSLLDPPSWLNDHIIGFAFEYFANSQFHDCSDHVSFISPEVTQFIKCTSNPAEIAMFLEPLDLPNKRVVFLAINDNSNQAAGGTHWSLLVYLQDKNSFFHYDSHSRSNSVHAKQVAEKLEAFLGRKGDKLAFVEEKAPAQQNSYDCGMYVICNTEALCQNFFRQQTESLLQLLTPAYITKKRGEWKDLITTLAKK

[4] = biological target: T3, Tyrosine-protein kinase receptor TYRO3 (Homo sapiens, UniProt Q06418); assay type: functional;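 note: TYRO3 value obtained as one member of a kinome-wide profiling panel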
T3 sequence (Q06418 whole entry): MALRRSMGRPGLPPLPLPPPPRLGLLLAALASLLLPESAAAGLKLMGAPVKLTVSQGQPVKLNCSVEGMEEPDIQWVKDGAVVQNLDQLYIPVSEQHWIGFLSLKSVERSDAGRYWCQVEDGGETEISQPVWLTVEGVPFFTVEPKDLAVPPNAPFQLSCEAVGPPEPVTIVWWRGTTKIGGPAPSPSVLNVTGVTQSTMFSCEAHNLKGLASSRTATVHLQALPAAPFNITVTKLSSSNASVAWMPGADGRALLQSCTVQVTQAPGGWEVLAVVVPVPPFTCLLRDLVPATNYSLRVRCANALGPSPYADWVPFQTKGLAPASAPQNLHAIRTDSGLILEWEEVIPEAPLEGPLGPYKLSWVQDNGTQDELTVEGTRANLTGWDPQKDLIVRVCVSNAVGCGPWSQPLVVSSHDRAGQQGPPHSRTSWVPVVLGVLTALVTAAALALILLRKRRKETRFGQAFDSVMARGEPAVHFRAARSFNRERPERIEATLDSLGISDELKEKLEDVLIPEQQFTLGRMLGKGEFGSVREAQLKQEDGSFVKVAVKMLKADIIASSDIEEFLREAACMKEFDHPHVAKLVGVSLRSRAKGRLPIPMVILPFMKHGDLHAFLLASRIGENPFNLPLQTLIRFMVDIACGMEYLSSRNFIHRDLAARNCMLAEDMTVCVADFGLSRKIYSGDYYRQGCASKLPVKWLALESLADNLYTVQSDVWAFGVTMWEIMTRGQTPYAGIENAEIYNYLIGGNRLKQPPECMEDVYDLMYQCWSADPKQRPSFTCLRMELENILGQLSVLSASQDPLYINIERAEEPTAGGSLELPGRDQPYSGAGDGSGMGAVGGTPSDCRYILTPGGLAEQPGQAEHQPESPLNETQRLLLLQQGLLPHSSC

[5] = biological target: Cyclin-dependent kinase 5 (Homo sapiens, UniProt Q00535); assay type: functional;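 note: CDK5 measured as one member of a kinase profiling panel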
Chain of Cyclin-dependent kinase 5 (Q00535 whole entry): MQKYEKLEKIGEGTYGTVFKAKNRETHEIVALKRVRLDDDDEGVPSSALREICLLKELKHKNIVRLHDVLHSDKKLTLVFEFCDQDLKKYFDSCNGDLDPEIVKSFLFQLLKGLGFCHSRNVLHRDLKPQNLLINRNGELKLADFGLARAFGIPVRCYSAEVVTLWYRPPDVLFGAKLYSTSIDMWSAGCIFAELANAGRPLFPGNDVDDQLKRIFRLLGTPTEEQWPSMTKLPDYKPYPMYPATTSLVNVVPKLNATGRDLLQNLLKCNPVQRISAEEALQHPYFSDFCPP

[6] = biological target: Aurora kinase B (Homo sapiens, UniProt Q96GD4); assay type: functional
Chain of Aurora kinase B (Q96GD4 whole entry): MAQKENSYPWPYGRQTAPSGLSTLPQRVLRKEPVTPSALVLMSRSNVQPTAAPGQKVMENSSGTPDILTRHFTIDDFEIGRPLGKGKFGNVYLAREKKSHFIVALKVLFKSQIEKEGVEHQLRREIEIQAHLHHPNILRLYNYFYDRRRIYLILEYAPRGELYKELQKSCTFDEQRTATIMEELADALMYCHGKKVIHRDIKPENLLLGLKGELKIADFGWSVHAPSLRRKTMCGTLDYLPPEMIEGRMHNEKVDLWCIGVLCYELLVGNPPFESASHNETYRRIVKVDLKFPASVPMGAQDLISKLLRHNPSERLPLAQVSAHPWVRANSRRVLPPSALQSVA

[7] = biological target: Mitogen-activated protein kinase kinase kinase kinase 4 (Homo sapiens, UniProt O95819); assay type: functional
Chain of Mitogen-activated protein kinase kinase kinase kinase 4 (O95819 whole entry): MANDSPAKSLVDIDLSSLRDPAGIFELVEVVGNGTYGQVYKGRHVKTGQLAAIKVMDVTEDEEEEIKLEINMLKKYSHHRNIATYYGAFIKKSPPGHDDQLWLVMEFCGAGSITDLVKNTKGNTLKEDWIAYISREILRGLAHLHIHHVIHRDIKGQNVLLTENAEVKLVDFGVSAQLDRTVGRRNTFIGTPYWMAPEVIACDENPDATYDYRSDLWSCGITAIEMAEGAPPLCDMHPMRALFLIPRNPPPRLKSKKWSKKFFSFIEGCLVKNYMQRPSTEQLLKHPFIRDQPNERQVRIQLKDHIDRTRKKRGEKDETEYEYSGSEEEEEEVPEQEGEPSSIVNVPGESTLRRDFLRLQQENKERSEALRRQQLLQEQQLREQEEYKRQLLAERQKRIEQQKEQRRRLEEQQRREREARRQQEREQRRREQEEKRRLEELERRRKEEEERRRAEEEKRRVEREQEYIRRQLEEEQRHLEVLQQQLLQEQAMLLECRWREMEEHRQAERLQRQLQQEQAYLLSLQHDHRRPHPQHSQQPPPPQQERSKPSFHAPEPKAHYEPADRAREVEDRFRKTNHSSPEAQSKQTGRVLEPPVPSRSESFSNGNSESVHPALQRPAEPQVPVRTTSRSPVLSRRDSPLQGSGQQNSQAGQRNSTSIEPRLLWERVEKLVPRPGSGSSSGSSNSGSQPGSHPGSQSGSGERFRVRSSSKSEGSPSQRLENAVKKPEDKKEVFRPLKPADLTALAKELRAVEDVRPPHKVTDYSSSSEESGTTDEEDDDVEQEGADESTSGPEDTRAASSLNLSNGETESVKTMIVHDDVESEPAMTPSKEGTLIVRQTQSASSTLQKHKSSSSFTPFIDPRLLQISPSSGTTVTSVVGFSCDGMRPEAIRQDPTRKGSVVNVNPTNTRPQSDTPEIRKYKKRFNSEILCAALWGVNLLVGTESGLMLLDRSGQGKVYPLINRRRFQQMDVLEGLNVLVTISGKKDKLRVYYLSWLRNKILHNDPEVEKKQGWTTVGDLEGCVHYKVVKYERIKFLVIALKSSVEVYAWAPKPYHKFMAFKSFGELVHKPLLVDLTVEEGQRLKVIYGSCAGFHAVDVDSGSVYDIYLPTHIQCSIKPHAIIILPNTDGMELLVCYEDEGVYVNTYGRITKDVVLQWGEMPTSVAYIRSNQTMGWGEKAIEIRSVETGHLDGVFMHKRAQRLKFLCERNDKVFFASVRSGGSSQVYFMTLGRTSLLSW

[8] = biological target: Leukocyte tyrosine kinase receptor (Homo sapiens, UniProt P29376); test: Navigating the Kinome. Panel member name: LTK; assay type: functional
Chain of Leukocyte tyrosine kinase receptor (P29376 whole entry): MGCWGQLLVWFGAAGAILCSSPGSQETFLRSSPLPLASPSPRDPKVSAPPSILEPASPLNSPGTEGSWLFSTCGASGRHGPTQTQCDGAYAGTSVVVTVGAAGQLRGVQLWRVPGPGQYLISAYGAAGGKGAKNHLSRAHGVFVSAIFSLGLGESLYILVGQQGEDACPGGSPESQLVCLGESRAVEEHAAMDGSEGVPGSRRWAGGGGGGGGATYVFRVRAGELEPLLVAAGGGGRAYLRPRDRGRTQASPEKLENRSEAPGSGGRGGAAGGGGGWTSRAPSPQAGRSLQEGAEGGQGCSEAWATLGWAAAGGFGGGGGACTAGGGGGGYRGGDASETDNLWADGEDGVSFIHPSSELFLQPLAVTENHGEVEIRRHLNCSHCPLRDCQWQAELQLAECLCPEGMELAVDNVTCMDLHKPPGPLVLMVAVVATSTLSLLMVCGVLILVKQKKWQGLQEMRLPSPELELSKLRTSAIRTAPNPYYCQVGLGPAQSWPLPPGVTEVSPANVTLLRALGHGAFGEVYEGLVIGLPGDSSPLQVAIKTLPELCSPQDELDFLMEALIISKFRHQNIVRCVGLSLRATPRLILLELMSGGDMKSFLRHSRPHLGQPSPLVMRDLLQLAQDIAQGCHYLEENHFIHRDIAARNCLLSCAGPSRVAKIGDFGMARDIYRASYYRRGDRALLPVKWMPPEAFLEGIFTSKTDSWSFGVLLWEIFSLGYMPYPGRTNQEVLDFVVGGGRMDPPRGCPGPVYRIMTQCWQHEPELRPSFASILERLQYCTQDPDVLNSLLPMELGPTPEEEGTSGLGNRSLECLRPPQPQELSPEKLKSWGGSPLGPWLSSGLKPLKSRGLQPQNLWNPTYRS

`CC(C)(C)c1cc[n+](C2=C([N-]S(=O)(=O)c3cccs3)C(=O)c3ccccc3C2=O)cc1` was tested, and the EC50 [1] was 7.2 µM (active), the IC50 [2] was 5.53 µM (active) and the IC50 [3] was 9.58 µM (active).
With `Cc1ccc(F)c(NC(=O)Nc2ccc(-c3cccc4[nH]nc(N)c34)cc2)c1` [LINIFANIB] the Ki [4] was > 3.16 µM (inactive), the Ki [5] was > 3.16 µM (inactive) and the Ki [6] was 0.0794 µM (active). For the same molecule, the Ki [7] was > 5.01 µM (inactive) and the Ki [8] was 1 µM (active).
For `COc1c(-c2nc3ccccc3[nH]2)c(O)cc2oc(C)cc(=O)c12`, the Ki [4] was 0.316 µM (active), the Ki [5] was 0.794 µM (active) and the Ki [6] was 0.794 µM (active). For the same molecule, the Ki [7] was 5.01 µM (active) and the Ki [8] was 0.158 µM (active).
`Cc1cc([N+](=O)[O-])cc(/C=N\NC(=O)C2COc3ccccc3O2)c1O` (stereo not given) was tested, and the EC50 [1] was 2.79 µM (active), the IC50 [2] was 28.4 µM (active) and the IC50 [3] was 42.1 µM (active).
In the case of `CCc1ccc(S(=O)(=O)/N=C2\C=C(Nc3ccc(O)cc3)C(=O)c3ccccc32)cc1`, the EC50 [1] is reported as 2.16 µM (active).
With `COC(=O)c1c(N)nc2ccccn12` the Ki [4] was 25.1 µM (active), the Ki [5] was 39.8 µM (active) and the Ki [6] was 15.8 µM (active). The Ki [7] was 12.6 µM (active) and the Ki [8] was 10 µM (active).
For `CCCNC(=O)c1c(N)n(CC2CCCO2)c2nc3ccccc3nc12` (stereo not given), the IC50 [2] was 2.01 µM (active) and the IC50 [3] was 3.35 µM (active).
For `O=C1/C(=C\c2cccc(O)c2O)SC(=S)N1Cc1ccccc1`, the EC50 [1] was 6.24 µM (active).
